# Experimental data published in patent publication US9226926B2, “Therapeutic agent for lower urinary tract disease” (N.M.A. Co., Ltd., priority 2013, dated 2016).
# How the values were obtained:
# Type in all cases: in vivo, SD rats
# [1] = system: rat model of chronic cystitis; assay: Conscious cystometrography in rat model of chronic cystitis (cyclophosphamide); details: 300 μL into the bladder, cyclophosphamide 150 mg/kg i.p., after two days
# Description: In addition, experiments were performed for studying effects of the present invention on cystitis using a rat model of chronic cystitis. To 12-week old male SD rats, cyclophosphamide (150 mg/kg) was intraperitoneally administered under isoflurane anesthetization. Immediately after that, rebamipide (1 mM or 10 mM, 300 μL) or vehicle was injected into the bladder, and the rats were held in the supine position for 1 hour. (1) After two days, conscious cystometrography was performed (the saline perfusion flow rate: 0.04 ml/min) was performed.
# [2] = system: rat model of chronic cystitis; assay: H&E staining of removed bladder to score the degree of inflammation
# Description: To 12-week old male SD rats, cyclophosphamide (150 mg/kg) was intraperitoneally administered under isoflurane anesthetization. Immediately after that, rebamipide (1 mM or 10 mM, 300 μL) or vehicle was injected into the bladder, and the rats were held in the supine position for 1 hour. (2) After two days, the bladder was removed, and H&E stained to score the degree of inflammation
# [3] = system: TNFα; assay: TNFα in bladder tissue by RT-PCR; details: rebamipide group vs CYP group
# Description: (§1) To 12-week old male SD rats, cyclophosphamide (150 mg/kg) was intraperitoneally administered under isoflurane anesthetization. Immediately after that, rebamipide (1 mM or 10 mM, 300 μL) or vehicle was injected into the bladder, and the rats were held in the supine position for 1 hour. (3) TNFα, IL-6 and IL-1β which are inflammatory cytokines in bladder tissue were measured by RT-PCR, and an inflammation marker, MPO, was measured by ELISA.
# [4] = system: IL-6; assay: IL-6 in bladder tissue by RT-PCR; details: rebamipide group vs CYP group
# Description: as §1
# [5] = system: IL-1β; assay: IL-1β in bladder tissue by RT-PCR; details: rebamipide group vs CYP group
# Description: as §1
# [6] = system: MPO; assay: MPO inflammation marker in bladder tissue by ELISA; details: rebamipide group vs CYP group
# Description: as §1
# [7] = rebamipide group vs CYP group, after two days
smiles,measurement,setting,value
"O=C(NC(Cc1cc(=O)[nH]c2ccccc12)C(=O)O)c1ccc(Cl)cc1 (stereo not drawn) [rebamipide, 2-(4-chlorbenzoylamino)-3-(2-quinolone-4-yl)propionic acid]",urination interval,[1]; 1 mM,14.4 ± 2.1 min
same,urination interval,[1]; 10 mM,21.1 ± 2.5 min
same,invasive inflammatory cells,[2]; [7],significantly reduced
same,submucosal edema,[2]; [7],significantly reduced
same,bladder inflammation,"[2]; rebamipide injected into the bladder, summary",suppressed
same,level of TNFα in the bladder tissue,[3],increase was suppressed
same,level of IL-6 in the bladder tissue,[4],increase was suppressed
same,level of IL-1β in the bladder tissue,[5],increase was suppressed
same,level of MPO in the bladder tissue,[6],increase was suppressed
